Measurements published in publication PMC8508785, “Synthesis and In Silico Docking of New Pyrazolo[4,3-e]pyrido[1,2-a]pyrimidine-based Cytotoxic Agents” (International Journal of Molecular Sciences, 2021).

What was measured:
[1] = system: NIH 3T3 non-malignant mouse embryonic fibroblasts; assay: SRB cytotoxicity assay, NIH 3T3; assay type: cell-based; conditions: NIH3T3, 72 h of treatment, non-malignant NIH 3T3
Procedure: (§1) The synthesized compounds were evaluated for their cytotoxic activity by a photometric […] (SRB) on different human cancer cell lines, malignant melanoma (A375), colon (HT29), breast (MCF-7), human ovarian carcinoma (A2780) and pharynx carcinoma (FaDu); for comparison, non-malignant mouse embryonic fibroblasts (NIH 3T3) and human embryonic kidney cells (HEK293) were included; doxorubicin (DX) was used as a positive control.
(§2) The cell lines were obtained from Department of oncology (MartinLutherUniversity Halle-Wittenberg). Cultures were maintained as monolayers in RPMI 1640 medium with L-glutamine (Capricorn Scientific GmbH, Ebsdorfergrund, Germany) supplemented with 10% heat-inactivated fetal bovine serum (Sigma-Aldrich Chemie GmbH, Steinheim, Germany) and penicillin/streptomycin (1%, Capricorn Scientific GmbH, Ebsdorfergrund, Germany) at 37 °C in a humidified atmosphere with 5% CO2.
(§3) The cytotoxicity of the compounds was evaluated using the sulforhodamine-B (Kiton-Red S, ABCR: Karlsruhe, Germany) microculture colorimetric assay using […] cells in 96-well plates with the seeding of the cells on day 0,by applying appropriate cell densities to prevent confluence of the cells during the period of the experiment. On day 1, the cells were treated with six different concentrations (1, 3, 7, 12, 20 and 30 μM); thereby, the final concentration of DMSO was always <0.5%, generally regarded as non-toxic to the cells. On day 4, the supernatant medium was discarded; the cells were fixed with 10% trichloroacetic acid. After another day at 4 °C, the cells were washed in a strip washer and dyed with the SRB solution (100 μL, 0.4% in 1% acetic acid) for about 20 min to be followed by washing of the plates (four times, 1% acetic acid) and air-drying overnight. Furthermore, Tris base solution (200 μL, 10 mM) was added to each well, and absorbance was measured at λ = 570 nm employing a reader (96 wells, Tecan Spectra, Crailsheim, Germany). The EC50 values were averaged from three independent experiments performed each in triplicate, calculated from semi-logarithmic dose–response curves applying a non-linear four-parameter Hill-slope equation (GraphPad Prism5 vom Graphpad Software Inc., San Diego, USA; the variables top and bottom were set to 100 and 0, respectively).

[2] = system: human tumor cell lines A375, HT29, MCF7, A2780, FaDu; assay: SRB cytotoxicity assay, panel of human tumor cell lines; assay type: cell-based; conditions: one statement for several/all five cancer cell lines, read-out: EC50 across the cancer cell lines
Procedure: as §1, §2
as §3, with “After another day at 4 °C, the cells were washed in a strip washer and dyed with the SRB solution (100 μL, 0.4% in 1% acetic acid) for about 20 min to be followed by washing of the plates (four times, 1% acetic acid) and air-drying overnight.” left out

[3] = system: HEK293 human embryonic kidney cells; assay: SRB cytotoxicity assay, HEK293; assay type: cell-based; conditions: 72 h of treatment, non-malignant HEK293
Procedure: as §1, §2, §3

MCF-7 cells (breast) = assay: SRB cytotoxicity assay, MCF-7; assay type: cell-based; conditions: Homo sapiens, MCF7, 72 h of treatment
Procedure: as §1, §2, §3

[4] = system: FaDu cells (pharynx carcinoma); assay: SRB cytotoxicity assay, FaDu; assay type: cell-based; conditions: Homo sapiens, 72 h of treatment
Procedure: as §1, §2, §3

HT29 cells (colon) = assay: SRB cytotoxicity assay, HT29; assay type: cell-based; conditions: Homo sapiens, HT-29, 72 h of treatment
Procedure: as §1, §2, §3

[5] = system: A375 cells (malignant melanoma); assay: SRB cytotoxicity assay, A375; assay type: cell-based; conditions: Homo sapiens, A-375, 72 h of treatment
Procedure: as §1, §2, §3

[6] = system: A2780 cells (human ovarian carcinoma); assay: SRB cytotoxicity assay, A2780; assay type: cell-based; conditions: 72 h of treatment
Procedure: as §1, §2, §3

SMILES	EC50 [1] [µM]	EC50 [2] [µM]	EC50 [3] [µM]	EC50 (MCF-7 cells (breast)) [µM]	EC50 [4] [µM]	melting point [°C]	EC50 (HT29 cells (colon)) [µM]	EC50 [5] [µM]	EC50 [6] [µM]
Cc1nn(-c2ccccc2)c(N)c1C#N [Compound 3, 5-Amino-3-methyl-1-phenyl-1H-pyrazole-4-carbonitrile]	> 30	> 30	> 30	> 30	> 30	132	> 30	> 30	> 30
CC(=O)/C=C(\C)Nc1c(C#N)c(C)nn1-c1ccccc1 [Compound 5, 3-Methyl-5-{[(1E)-1-methyl-3-oxobut-1-en-1-yl]amino}-1-phenyl-1H-pyrazole-4-carbonitrile]	> 30	> 30	> 30	> 30	> 30	109	> 30	> 30	> 30
CC(=O)C1=C(C)N2C(=C(C#N)C1c1ccc(Cl)cc1)N=C(N)c1c(C)nn(-c3ccccc3)c12 (stereo not shown) [Compound 7a, 8-Acetyl-4-amino-7-(4-chlorophenyl)-3,9-dimethyl-1-phenyl-1,7-dihydropyrazolo[4,3-e] Pyrido[1,2-a]pyrimidine-6-carbonitrile]	23 ± 1.4		15.8 ± 2	17.2 ± 1.4	> 30	167	29.9 ± 1.4	19.3 ± 3	18 ± 3
CC(=O)C1=C(C)N2C(=C(C#N)C1c1ccc(C)cc1)N=C(N)c1c(C)nn(-c3ccccc3)c12 (stereo not shown) [Compound 7b]	21.3 ± 0.9		12.4 ± 0.9	12.2 ± 1.3	22.3 ± 2.7	167	17.5 ± 1.8	12.9 ± 1.6	14.6 ± 2.2
CC(=O)C1=C(C)N2C(=C(C#N)C1c1ccccc1)N=C(N)c1c(C)nn(-c3ccccc3)c12 (stereo not shown) [Compound 7c, 8-Acetyl-4-amino-3,9-dimethyl-1,7-diphenyl-1,7-dihydropyrazolo[4,3-e]Pyrido[1,2-a]pyrimidine-6-carbonitrile]	> 30		7.7 ± 1.1	19.5 ± 1.1	> 30	198	> 30	19.3 ± 3.8	25.4 ± 2.5
COc1ccc(C2C(C#N)=C3N=C(N)c4c(C)nn(-c5ccccc5)c4N3C(C)=C2C(C)=O)cc1 (stereo not shown) [Compound 7d, 8-Acetyl-4-Amino-7-(4-methoxyphenyl)-3,9-dimethyl-1-phenyl-1,7-dihydropyrazolo[4,3-e] Pyrido[1,2-a]pyrimidine-6-carbonitrile]	> 30		16.7 ± 1.2	18.4 ± 2.3	> 30	160	28.3 ± 3.5	21.5 ± 3.6	21.7 ± 3.9
CC(=O)C1=C(C)N2C(=C(C#N)C1c1ccc(Br)cc1)N=C(N)c1c(C)nn(-c3ccccc3)c12 (stereo not shown) [Compound 7e, 8-Acetyl-4-amino-7-(4-bromophenyl)-3,9-dimethyl-1-phenyl-1,7-dihydropyrazolo[4,3-e] Pyrido[1,2-a]pyrimidine-6-carbonitrile]	12.3 ± 0.7	9.1 to 13.5	6.6 ± 0.6	9.2 ± 0.7	13.5 ± 1.5	192	13.3 ± 1.8	9.4 ± 1.2	9.1 ± 1.6
CC(=O)C1=C(C)N2C(=C(C#N)C1c1ccc(F)cc1)N=C(N)c1c(C)nn(-c3ccccc3)c12 (stereo not shown) [Compound 7f, 8-Acetyl-4-amino-7-(4-fluorophenyl)-3,9-dimethyl-1-phenyl-1,7-sihydropyrazolo[4,3-e] Pyrido[1,2-a]pyrimidine-6-carbonitrile]	24.1 ± 2.8		14.7 ± 1.4	19.2 ± 1.3	> 30	259	24.7 ± 4.4	18.1 ± 3.3	19.2 ± 3.9
CC(=O)C1=C(C)N2C(=C(C#N)C1c1ccc([N+](=O)[O-])cc1)N=C(N)c1c(C)nn(-c3ccccc3)c12 (stereo not shown) [Compound 7g, 8-Acetyl-4-amino-3,9-dimethyl-7-(4-nitrophenyl)-1-phenyl-1,7-dihydropyrazolo[4,3-e] Pyrido[1,2-a]pyrimidine-6-carbonitrile]	> 30		17 ± 1.3	15.7 ± 2.2	> 30	164	25.9 ± 3.4	16.2 ± 2	14.5 ± 2.2
COc1ccc(C2C(C#N)=C3N=C(N)c4c(C)nn(-c5ccccc5)c4N3C(C)=C2C(C)=O)cc1OC (stereo not shown) [Compound 7h, 8-Acetyl-4-amino-7-(3,4-dimethoxyphenyl)-3,9-dimethyl-1-phenyl-1,7-dihydropyrazolo[4,3-e] Pyrido[1,2-a]pyrimidine-6-carbonitrile]	> 30		24 ± 3.4	25.1 ± 2.8	> 30	260	> 30	22.1 ± 4.9	27.5 ± 8.1
CC(=O)C1=C(C)N2C(=C(C#N)C1c1ccc(Cl)c(Cl)c1)N=C(N)c1c(C)nn(-c3ccccc3)c12 (stereo not shown) [Compound 7i, 8-Acetyl-4-amino-7-(3,4-dichlorophenyl)-3,9-dimethyl-1-phenyl-1,7-dihydropyrazolo[4,3-e] Pyrido[1,2-a]pyrimidine-6-carbonitrile]						235			
CC(=O)C1=C(C)N2C(=C(C#N)C1c1ccc([N+](=O)[O-])s1)N=C(N)c1c(C)nn(-c3ccccc3)c12 (stereo not shown) [Compound 7j, 8-Acetyl-4-amino-3,9-dimethyl-7-(5-nitro-2-thienyl)-1-phenyl-1,7-dihydropyrazolo[4,3-e] Pyrido[1,2-a]pyrimidine-6-carbonitrile]						262			
CC(=O)C1=C(C)N2C(=C(C#N)C1c1ccc3ccccc3c1)N=C(N)c1c(C)nn(-c3ccccc3)c12 (stereo not shown) [Compound 7k, 8-Acetyl-4-amino-3,9-dimethyl-7-(2-naphthyl)-1-phenyl-1,7-dihydropyrazolo[4,3-e] Pyrido[1,2-a]pyrimidine-6-carbonitrile]						270			
CC(=O)C1=C(C)N2C(=C(C#N)C1c1cccnc1)N=C(N)c1c(C)nn(-c3ccccc3)c12 (stereo not shown) [Compound 7l, 8-Acetyl-4-amino-3,9-dimethyl-1-phenyl-7-pyridin-3-yl-1,7-dihydropyrazolo[4,3-e] Pyrido[1,2-a]pyrimidine-6-carbonitrile]						306			
COc1cccc2c1C(=O)c1c(O)c3c(c(O)c1C2=O)C[C@@](O)(C(=O)CO)C[C@@H]3O[C@H]1C[C@H](N)[C@H](O)[C@H](C)O1 [DX, doxorubicin, reference compound]	0.4 ± 0.07			1.1 ± 0.3			0.9 ± 0.01		0.01 ± 0.01
